Key:
HGPS MSCs = test: Live cell imaging (cell density); assay type: cell-based, human; details: 7 days
Experimental: HGPS MSCs were seeded at 2500 cells per well in 96-well plates and cultivated during 7 days in presence of the drugs. Cell density was monitored using an IncuCyte ZOOM microscope (Essen Bioscience). Each value corresponds to the mean of cell densities of four pictures taken in three independent wells.

HMGCR = target: T1, HMGCR (Homo sapiens, UniProt P04035); test: HMGCR colorimetric activity assay; assay type: biochemical
T1 construct: oxidation of NADPH by the catalytic subunit of HMGCR in the presence of the substrate HMG CoA; purchased Sigma-Aldrich
T1 sequence (P04035 340-888 limits assumed): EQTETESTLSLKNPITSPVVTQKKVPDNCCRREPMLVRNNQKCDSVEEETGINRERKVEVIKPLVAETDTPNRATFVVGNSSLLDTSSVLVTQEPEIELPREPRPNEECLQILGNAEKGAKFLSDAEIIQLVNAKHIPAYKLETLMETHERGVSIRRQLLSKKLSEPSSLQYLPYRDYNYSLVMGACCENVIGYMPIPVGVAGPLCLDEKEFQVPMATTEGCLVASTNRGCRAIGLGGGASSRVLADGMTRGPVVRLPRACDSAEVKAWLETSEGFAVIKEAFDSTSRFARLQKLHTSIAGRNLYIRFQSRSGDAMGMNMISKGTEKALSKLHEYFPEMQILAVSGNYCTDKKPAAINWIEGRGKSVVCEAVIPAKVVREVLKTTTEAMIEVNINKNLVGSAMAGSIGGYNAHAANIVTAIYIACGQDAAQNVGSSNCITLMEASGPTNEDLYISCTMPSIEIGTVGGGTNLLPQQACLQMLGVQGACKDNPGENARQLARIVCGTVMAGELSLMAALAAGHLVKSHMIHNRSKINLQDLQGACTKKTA
Experimental: HMGCR activity was measured using GCoA Reductase Assay Kit (Sigma-Aldrich) according to the manufacturer's protocol. The assay is based on the spectrophotometric measurement of the decrease in absorbance at 340 nm, which represents the oxidation of NADPH by the catalytic subunit of HMGCR in the presence of the substrate HMG CoA.

HDJ2 = test: Western blot analysis of HDJ2 farnesylation; assay type: cell-based, human

N#CC(c1ccccn1)c1ccnc(N2CCN(Cc3ccccc3F)CC2)n1 (stereo not drawn) [Mono-AP1, {2-[4-(2-fluoro-benzyl)-piperazin-1-yl]-pyrimidin-4-yl}-pyridin-2-yl-acetonitrile]
cytostatic effect in long term live imaging cultures (HGPS MSCs): less cytostatic than the FTI tipifarnib | IC50 (μM) HMGCR (HMGCR): No inhibition | unfarnesylated form of HDJ2 (HDJ2): increase of the unfarnesylated form of the protein

Source: US10654838B2, “Aminopyridine compounds useful as inhibitors of protein prenylation” (INSTITUT NATIONAL DE LA SANTE ET DE LA RECHERCHE MEDICALE …, priority 2014, dated 2020)
